This is an account of results in patent US20240208968A1, “ALPHA V BETA 6 AND ALPHA V BETA 1 INTEGRIN INHIBITORS AND USES THEREOF” (DiCE Molecules SV, Inc., priority 2021, published 2024).

One assay concerns the target αvβ6 (Homo sapiens, UniProt P06756+P18564). Nature of the assay: Solid Phase Integrin αvβ6 Assay. Type of assay: binding. In a few lines:
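Plates coated with 1 μg/mL recombinant TGFb1-LAP; compounds and αvβ6 (0.2 μg/mL diluted stock) incubated 1 h at room temperature in 2% BSA/TBST with 1 mM MnCl2. Bound integrin detected with streptavidin-HRP and TMB; IC50 from four-parameter logistic fits.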

In a further assay the target is αvβ1 (Homo sapiens, UniProt P05556+P06756). Nature of the assay: Solid Phase Integrin αvβ1 Assay. Type of assay: binding. In a few lines:
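Wells coated with 1 µg/mL recombinant TGFb1-LAP and blocked with 2% BSA/TBST, 1 mM MnCl2; αvβ1 (added at 0.2 µg/mL) and compound incubated 90 min at room temperature. Bound integrin detected by streptavidin-HRP (20 min) and TMB after Mn-containing washes; IC50 by four-parameter logistic fit.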

Chain of αvβ6 (P06756 31-992 limits assumed): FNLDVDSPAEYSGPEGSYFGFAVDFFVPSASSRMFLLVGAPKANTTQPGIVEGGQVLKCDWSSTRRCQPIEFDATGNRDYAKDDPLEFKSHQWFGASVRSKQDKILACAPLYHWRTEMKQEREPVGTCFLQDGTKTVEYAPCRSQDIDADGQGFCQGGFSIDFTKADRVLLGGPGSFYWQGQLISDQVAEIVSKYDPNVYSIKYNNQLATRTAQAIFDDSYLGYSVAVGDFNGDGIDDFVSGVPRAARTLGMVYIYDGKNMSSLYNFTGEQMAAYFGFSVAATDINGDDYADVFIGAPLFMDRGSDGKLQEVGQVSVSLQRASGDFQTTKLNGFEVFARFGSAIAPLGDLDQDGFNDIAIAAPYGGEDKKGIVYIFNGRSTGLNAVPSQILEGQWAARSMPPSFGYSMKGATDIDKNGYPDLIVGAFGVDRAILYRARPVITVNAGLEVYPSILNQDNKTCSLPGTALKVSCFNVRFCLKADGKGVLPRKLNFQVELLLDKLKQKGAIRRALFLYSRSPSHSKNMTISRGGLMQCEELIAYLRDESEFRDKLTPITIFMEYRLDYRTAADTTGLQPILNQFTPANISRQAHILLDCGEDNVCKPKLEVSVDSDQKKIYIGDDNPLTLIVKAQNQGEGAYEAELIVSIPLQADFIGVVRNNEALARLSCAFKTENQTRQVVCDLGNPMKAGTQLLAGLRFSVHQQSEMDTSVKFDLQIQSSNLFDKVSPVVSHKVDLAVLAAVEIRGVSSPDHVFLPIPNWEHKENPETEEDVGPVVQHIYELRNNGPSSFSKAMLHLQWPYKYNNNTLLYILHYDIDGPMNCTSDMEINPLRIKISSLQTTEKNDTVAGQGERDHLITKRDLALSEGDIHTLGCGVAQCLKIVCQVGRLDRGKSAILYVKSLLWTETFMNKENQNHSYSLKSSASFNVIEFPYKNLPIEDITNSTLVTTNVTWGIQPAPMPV
Chain of αvβ6 (P18564 22-707 limits assumed): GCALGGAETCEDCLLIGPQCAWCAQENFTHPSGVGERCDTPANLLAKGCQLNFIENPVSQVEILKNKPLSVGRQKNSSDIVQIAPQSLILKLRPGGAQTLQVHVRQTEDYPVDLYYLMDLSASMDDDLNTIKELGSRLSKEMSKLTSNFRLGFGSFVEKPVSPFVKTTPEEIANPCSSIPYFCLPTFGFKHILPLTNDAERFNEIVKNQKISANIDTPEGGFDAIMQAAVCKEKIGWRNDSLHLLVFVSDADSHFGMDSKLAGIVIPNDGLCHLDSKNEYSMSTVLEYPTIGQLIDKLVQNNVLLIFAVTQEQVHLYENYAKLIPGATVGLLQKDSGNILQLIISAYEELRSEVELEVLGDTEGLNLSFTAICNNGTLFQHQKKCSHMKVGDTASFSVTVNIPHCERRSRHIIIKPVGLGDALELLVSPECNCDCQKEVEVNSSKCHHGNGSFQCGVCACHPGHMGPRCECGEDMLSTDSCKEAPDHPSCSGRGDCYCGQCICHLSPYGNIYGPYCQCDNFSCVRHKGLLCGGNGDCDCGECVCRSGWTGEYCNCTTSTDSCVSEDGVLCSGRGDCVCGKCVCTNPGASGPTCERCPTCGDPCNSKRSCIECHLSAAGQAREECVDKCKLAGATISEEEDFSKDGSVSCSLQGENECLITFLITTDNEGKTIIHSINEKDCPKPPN
Chain of αvβ1 (P06756 31-992 limits assumed): as the sequence (P06756 31-992 limits assumed) above
Chain of αvβ1 (P05556 21-728 limits assumed): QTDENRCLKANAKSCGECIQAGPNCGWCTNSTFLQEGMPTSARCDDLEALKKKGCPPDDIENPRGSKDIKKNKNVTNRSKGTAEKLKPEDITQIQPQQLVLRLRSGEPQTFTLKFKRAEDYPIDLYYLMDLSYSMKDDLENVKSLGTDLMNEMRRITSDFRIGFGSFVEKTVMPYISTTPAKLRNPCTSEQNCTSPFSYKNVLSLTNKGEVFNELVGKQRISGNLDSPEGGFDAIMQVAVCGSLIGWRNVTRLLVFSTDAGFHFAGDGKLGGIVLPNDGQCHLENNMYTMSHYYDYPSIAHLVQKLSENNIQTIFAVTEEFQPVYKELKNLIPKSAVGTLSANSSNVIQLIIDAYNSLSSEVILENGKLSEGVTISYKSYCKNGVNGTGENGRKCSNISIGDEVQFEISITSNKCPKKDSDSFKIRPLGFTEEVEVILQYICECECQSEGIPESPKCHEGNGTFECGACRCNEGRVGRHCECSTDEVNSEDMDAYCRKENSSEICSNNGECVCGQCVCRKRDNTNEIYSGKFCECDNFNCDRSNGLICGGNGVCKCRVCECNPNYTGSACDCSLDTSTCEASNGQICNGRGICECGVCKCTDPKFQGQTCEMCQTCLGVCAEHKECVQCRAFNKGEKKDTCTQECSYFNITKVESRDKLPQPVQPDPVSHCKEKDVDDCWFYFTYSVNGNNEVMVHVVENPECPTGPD

Turning to `O=C(O)[C@@H](CCO[C@@H]1CCCN(CCCc2ccc3c(n2)NCCC3)C1)c1cccc2c1cnn2CC1CC1` [Compound 486], the IC50 against αvβ6 was less than 0.1 µM; on αvβ1, 0.1 to 1 µM.
On to `O=C(O)[C@@H](CCO[C@@H]1CCCN(CCCc2ccc3c(n2)NCCC3)C1)c1cccc2nn(CC3CC3)cc12` [Compound 487], for which the IC50 on αvβ6 and against αvβ1 was less than 0.1 µM each time.
With `O=C(N[C@@H](CCO[C@@H]1CCCN(CCCc2ccc3c(n2)NCCC3)C1)C(=O)O)c1cc(Cl)cc(Cl)c1` [Compound 488], the IC50 on αvβ6 and at αvβ1 was less than 0.1 µM in each case.
For the molecule `O=C(O)C[C@H](CO[C@@H]1CCCN(CCCc2ccc3c(n2)NCCC3)C1)c1cncc(C2CC2)c1` [Compound 489], the IC50 on αvβ6 and against αvβ1 was less than 0.1 µM each time.
On to `O=C(O)C[C@H](CO[C@@H]1CCCN(CCCc2ccc3c(n2)NCCC3)C1)c1ccnc(C2CC2)c1` [Compound 490], for which the half-maximal inhibitory concentration (IC50) at αvβ6 and against αvβ1 was less than 0.1 µM in each case.
For the molecule `O=C(O)C[C@H](CO[C@@H]1CCCN(CCCc2ccc3c(n2)NCCC3)C1)c1cccc([C@@H]2CCOC2)c1` [Compound 491], the IC50 against αvβ6 and against αvβ1 was less than 0.1 µM in each case.
Regarding `O=C(O)C[C@H](CO[C@@H]1CCCN(CCCc2ccc3c(n2)NCCC3)C1)c1cccc(-n2cccn2)c1` [Compound 492], the IC50 against αvβ6 and against αvβ1 was less than 0.1 µM throughout.
As to `O=C(O)C[C@H](CO[C@@H]1CCCN(CCCc2ccc3c(n2)NCCC3)C1)c1cccc([C@H]2CCOC2)c1` [Compound 493], the IC50 against αvβ6 and against αvβ1 was 0.1 to 1 µM each time.
For `O=C(N[C@H](CCO[C@@H]1CCCN(CCCc2ccc3c(n2)NCCC3)C1)C(=O)O)c1c(F)cc(N2CCOC[C@@H]2C(F)(F)F)cc1F` [Compound 494], the IC50 against αvβ6 and against αvβ1 was greater than 1 µM in each case.
For `O=C(O)[C@@H](CCO[C@@H]1CCCN(CCCc2ccc3c(n2)NCCC3)C1)NC(=O)[C@@H]1CCCN1S(=O)(=O)c1ccccc1` [Compound 495], the IC50 at αvβ6 is greater than 1 µM; on αvβ1, less than 0.1 µM.
Take `O=C(N[C@H](CCO[C@@H]1CCCN(CCCc2ccc3c(n2)NCCC3)C1)C(=O)O)c1cc(Cl)cc(Cl)c1` [Compound 496]: the IC50 against αvβ6 is 0.1 to 1 µM; against αvβ1, greater than 1 µM.
The corresponding values for `O=C(O)[C@@H](CCO[C@@H]1CCCN(CCCc2ccc3c(n2)NCCC3)C1)Nc1ncnc2cc(C(F)(F)F)ccc12` [Compound 497] are less than 0.1 µM and 0.1 to 1 µM.
The corresponding values for `O=C(O)[C@@H](CCO[C@@H]1CCCN(CCCc2ccc3c(n2)NCCC3)C1)Nc1ncnc2sccc12` [Compound 498] are less than 0.1 µM and less than 0.1 µM.
For `O=C(O)[C@H](CCO[C@@H]1CCCN(CCCc2ccc3c(n2)NCCC3)C1)c1ccc(F)c(-c2ccccc2)c1` [Compound 499], the IC50 against αvβ6 is less than 0.1 µM; against αvβ1 it was greater than 1 µM.
Turning to `O=C(O)[C@H](CCO[C@@H]1CCCN(CCCc2ccc3c(n2)NCCC3)C1)c1cccc2c1cnn2CC1CC1` [Compound 500], the values for the IC50 against αvβ6 and on αvβ1 were 0.1 to 1 µM and greater than 1 µM, respectively.
On the same counts, the results for `O=C(O)[C@H](CCO[C@@H]1CCCN(CCCc2ccc3c(n2)NCCC3)C1)c1cccc2nn(CC3CC3)cc12` [Compound 501] are 0.1 to 1 µM and greater than 1 µM.
Regarding `Cc1csc2ncnc(N[C@H](CCO[C@@H]3CCCN(CCCc4ccc5c(n4)NCCC5)C3)C(=O)O)c12` [Compound 502], the IC50 at αvβ6 and against αvβ1 was less than 0.1 µM in each case.
Regarding `O=C(O)[C@@H](CCO[C@@H]1CCCN(CCCc2ccc3c(n2)NCCC3)C1)Nc1ncnc2cc(F)c(F)cc12` [Compound 503], the results for the concentration for half-maximal inhibition (IC50) on αvβ6 and at αvβ1 were 0.1 to 1 µM and greater than 1 µM, respectively.
The corresponding values for `O=C(O)C[C@@H](CO[C@@H]1CCCN(CCCc2ccc3c(n2)NCCC3)C1)c1cccc(N2CCCC2=O)c1` [Compound 504] are less than 0.1 µM and less than 0.1 µM.
`O=C(O)C(CCO[C@@H]1CCCN(CCCc2ccc3c(n2)NCCC3)C1)c1ccnc(-c2ccccc2)c1` (stereo partly drawn) [Compound 505]: the IC50 at αvβ6 and against αvβ1 was greater than 1 µM in each case.
Regarding `O=C(O)C[C@@H](CO[C@@H]1CCCN(CCCc2ccc3c(n2)NCCC3)C1)c1cccc([C@@H]2CCOC2)c1` [Compound 506], the IC50 at αvβ6 and against αvβ1 was less than 0.1 µM each time.
Turning to `O=C(O)C[C@@H](CO[C@@H]1CCCN(CCCc2ccc3c(n2)NCCC3)C1)c1cccc([C@H]2CCOC2)c1` [Compound 507], the IC50 against αvβ6 and against αvβ1 was less than 0.1 µM in each case.
Take `O=C(O)C[C@@H](CO[C@@H]1CCCN(CCCc2ccc3c(n2)NCCC3)C1)c1cc(C2CC2)ccc1F` [Compound 508]: the IC50 against αvβ6 and at αvβ1 was less than 0.1 µM each time.
As to `Cc1c[s+]([O-])c2ncnc(N[C@@H](CCO[C@@H]3CCCN(CCCc4ccc5c(n4)NCCC5)C3)C(=O)O)c12` (stereo partly drawn) [Compound 509], the IC50 against αvβ6 and on αvβ1 was less than 0.1 µM throughout.
Consider `Cc1c[s+]([O-])c2ncnc(N[C@H](CCO[C@@H]3CCCN(CCCc4ccc5c(n4)NCCC5)C3)C(=O)O)c12` (stereo partly drawn) [Compound 510], for which the IC50 on αvβ6 and against αvβ1 was greater than 1 µM throughout.
With `O=C(O)[C@@H](CCO[C@@H]1CCCN(CCCc2ccc3c(n2)NCCC3)C1)Nc1ncnc2ccsc12` [Compound 511], the half-inhibitory concentration (IC50) on αvβ6 and against αvβ1 was less than 0.1 µM throughout.
As to `O=C(N[C@H](CCO[C@@H]1CCCN(CCCc2ccc3c(n2)NCCC3)C1)C(=O)O)c1c(F)cc(N2CCOCC2)cc1F` [Compound 512], the IC50 at αvβ6 and at αvβ1 was greater than 1 µM throughout.
As to `O=C(O)C[C@@H](CO[C@@H]1CCCN(CCCc2ccc3c(n2)NCCC3)C1)c1cncc(C2CC2)c1` [Compound 513], the concentration for half-maximal inhibition (IC50) at αvβ6 and at αvβ1 was less than 0.1 µM each time.
Consider `O=C(O)C[C@@H](CO[C@@H]1CCCN(CCCc2ccc3c(n2)NCCC3)C1)c1ccnc(C2CC2)c1` [Compound 514], for which the 50% inhibitory concentration (IC50) on αvβ6 and on αvβ1 was less than 0.1 µM throughout.
As for `O=C(O)C[C@@H](CO[C@@H]1CCCN(CCCc2ccc3c(n2)NCCC3)C1)c1cccc(-n2cccn2)c1` [Compound 515], the IC50 is less than 0.1 µM on αvβ6 and 0.1 to 1 µM against αvβ1.
The corresponding values for `O=C(O)[C@H](CCO[C@@H]1CCCN(CCCc2ccc3c(n2)NCCC3)C1)c1ccc(C2CC2)cc1` [Compound 516] are less than 0.1 µM and less than 0.1 µM.
The corresponding values for `O=C(NC[C@H](C(=O)O)c1cccc(-c2ccncc2)c1)[C@@H]1CCCN(CCCc2ccc3c(n2)NCCC3)C1` [Compound 517] are less than 0.1 µM and less than 0.1 µM.
On the same counts, the results for `O=C(NC[C@H](C(=O)O)c1cccc(-c2cccc(C(F)(F)F)c2)c1)[C@@H]1CCCN(CCCc2ccc3c(n2)NCCC3)C1` [Compound 518] are less than 0.1 µM and less than 0.1 µM.
In the case of `O=C(O)C[C@@H](CO[C@@H]1CCCN(CCCc2ccc3c(n2)NCCC3)C1)c1cc(F)cc(C2CC2)c1` [Compound 519], the 50% inhibitory concentration (IC50) against αvβ6 and against αvβ1 was less than 0.1 µM each time.
Take `O=C(O)CC(CC(=O)N[C@H]1CCN(C(=O)CCCc2ccc3c(n2)NCCC3)C1)c1ccccc1` (stereo partly drawn) [Compound 520]: the IC50 on αvβ6 is 0.1 to 1 µM; against αvβ1 it was less than 0.1 µM.
On the same counts, the results for `O=C(O)C[C@@H](CC(=O)N[C@H]1CCN(C(=O)CCCc2ccc3c(n2)NCCC3)C1)c1ccccc1` [Compound 521] are 0.1 to 1 µM and less than 0.1 µM.

The IC50 is the concentration that inhibits the measured activity by half. Low readings indicate higher potency, high ones lower potency.
